This is an account of results in ChEMBL document CHEMBL3774331, “Inhibition of tau aggregation using a naturally-occurring cyclic peptide scaffold” (Eur J Med Chem, 2016).

Active and inactive are the calls of the source. No cut-off for these calls is given here. Where a SMILES comes first, the peptide text is derived from it. Bridges are numbered along the chain shown (N, C = ends).

Series [1] can be described thus: Inhibition of TAU derived synthetic hexapeptide AcPHF6 fibril formation at compound:AcPHF6 ratio of 1:1 to 1:64 incubated for 60 mins by thioflavin S fluorescence assay.
For a further series, the system named is Serum. Put plainly: Stability in 100% human serum at 30 uM after 24 hrs. The class given is ADME.
Series [2] can be described thus: Inhibition of TAU derived synthetic hexapeptide AcPHF6 fibril formation incubated for 60 mins by thioflavin T fluorescence assay.
The nature of series [3]: Inhibition of TAU derived synthetic hexapeptide AcPHF6 fibril formation incubated for 120 mins by thioflavin S fluorescence assay.
Series [4] is described as follows: Binding affinity to thioflavin S at compound:AcPHF6 ratio of 1:1 to 1:64 incubated for 120 mins by fluorescence assay.
The nature of series [5]: Binding affinity to thioflavin S at compound:AcPHF6 ratio of 1:1 incubated for 120 mins by fluorescence assay.
Series [6] is described as follows: Activation of TAU derived synthetic hexapeptide AcPHF6 fibril formation at compound:AcPHF6 ratio of 1:1 to 1:64 incubated for 60 mins by thioflavin S fluorescence assay.

`CC[C@H](C)[C@@H]1NC(=O)[C@H](C)NC(=O)CNC(=O)[C@@H]2CCCN2C(=O)[C@@H]2CCCN2C(=O)[C@H]([C@@H](C)CC)NC(=O)[C@H](CO)NC(=O)[C@H](CCCCN)NC(=O)[C@H](Cc2ccc(O)cc2)NC(=O)[C@H](C)NC(=O)[C@H]([C@@H](C)CC)NC(=O)[C@H](CCC(N)=O)NC(=O)[C@H](C(C)C)NC(=O)CNC(=O)[C@H](CC(=O)O)NC(=O)[C@@H]2CCCN2C(=O)[C@H](C(C)C)NC(=O)[C@H](CCCCN)NC1=O` (cyclo(AIKVPDGVQIAYKSIPPG)): the inhibition entry in series [1] is “Active”. Further, in the series with Serum, the Stability entry is given as “Stable”. For the compound `CC[C@H](C)[C@@H]1NC(=O)[C@H](CCC(N)=O)NC(=O)[C@H](C(C)C)NC(=O)CNC(=O)[C@H]2CCCN2C(=O)[C@H](C(C)C)NC(=O)[C@H](C)N(C)C(=O)[C@H]([C@@H](C)CC)NC(=O)[C@@H]2CSSC[C@H](NC1=O)C(=O)N[C@@H](Cc1ccc(O)cc1)C(=O)N[C@@H](CCCCN)C(=O)N[C@@H](CO)C(=O)N[C@@H]([C@@H](C)CC)C(=O)N1CCC[C@H]1C(=O)N1CCC[C@H]1C(=O)N[C@@H]([C@@H](C)CC)C(=O)N2`, the inhibition result in series [2] is “Dose-dependent effect”. As for `CC[C@H](C)[C@@H]1NC(=O)[C@@H]2CCCN2C(=O)[C@@H]2CCCN2C(=O)[C@H]([C@@H](C)CC)NC(=O)[C@H](CO)NC(=O)[C@H](CCCCN)NC(=O)[C@H]([C@@H](C)O)NC(=O)[C@@H]2CSSC[C@H](NC1=O)C(=O)N[C@@H](Cc1ccccc1)C(=O)N1CCC[C@H]1C(=O)N[C@@H](CC(=O)O)C(=O)NCC(=O)N[C@@H](CCCNC(=N)N)C(=O)N2`, in series [1], the inhibition result is “Active”. Also, the inhibition entry in series [3] was “Dose-dependent effect”. Moreover, the outcome in series [4] was inactive.

For the compound `CC[C@H](C)[C@@H]1NC(=O)[C@H](CCC(N)=O)NC(=O)[C@H](C(C)C)NC(=O)CNC(=O)[C@H](CC(=O)O)NC(=O)[C@@H]2CCCN2C(=O)[C@H](C(C)C)NC(=O)[C@H](C)NC(=O)[C@H](Cc2ccccc2)NC(=O)[C@@H]2CSSC[C@H](NC1=O)C(=O)N[C@@H](Cc1ccc(O)cc1)C(=O)N[C@@H](CCCCN)C(=O)N[C@@H](CO)C(=O)N[C@@H]([C@@H](C)CC)C(=O)N1CCC[C@H]1C(=O)N1CCC[C@H]1C(=O)N[C@@H]([C@@H](C)CC)C(=O)N2` (cyclo(AVPDGVQICYKSIPPICF); disulfide 9-17), the inhibition result in series [1] is “Active”. Besides, the outcome in series [5] was Active.

As to `CC(C)[C@H](NC(=O)CN)C(=O)N[C@H]1CSSC[C@@H](C(=O)N[C@@H](CCCNC(=N)N)C(=O)N[C@@H](CCCNC(=N)N)C(=O)O)NC(=O)[C@@H](C(C)C)NC(=O)C2CSSCC(NC(=O)[C@H](CCCNC(=N)N)NC1=O)C(=O)N[C@@H](C(C)C)C(=O)N[C@H]1CSSC[C@H](NC(=O)[C@H](C(C)C)NC(=O)CNC(=O)[C@H](CCCNC(=N)N)NC(=O)[C@H](CCCNC(=N)N)NC1=O)C(=O)N[C@@H](CCCNC(=N)N)C(=O)N2`, the outcome in series [6] and in series [4] was Active. For the compound `CC[C@H](C)[C@@H]1NC(=O)[C@H](CCC(N)=O)NC(=O)[C@H](C(C)C)NC(=O)CNC(=O)[C@H](CC(=O)O)NC(=O)[C@@H]2CCCN2C(=O)[C@H](C(C)C)NC(=O)[C@H](CCCCN)NC(=O)[C@H]([C@@H](C)CC)NC(=O)[C@@H]2CSSC[C@H](NC1=O)C(=O)N[C@@H](Cc1ccc(O)cc1)C(=O)N[C@@H](CCCCN)C(=O)N[C@@H](CO)C(=O)N[C@@H]([C@@H](C)CC)C(=O)N1CCC[C@H]1C(=O)N1CCC[C@H]1C(=O)NCC(=O)N2` (cyclo(CIKVPDGVQICYKSIPPG); disulfide 1-11), the inhibition result in series [1] is “Active”. In addition, the Stability entry with Serum is given as “Stable”. Take `CC[C@H](C)[C@@H]1NC(=O)[C@@H]2CSSC[C@H](NC(=O)[C@H]([C@@H](C)CC)NC(=O)[C@H](CCC(N)=O)NC(=O)[C@H](C(C)C)NC(=O)CNC(=O)[C@H]3CCCN3C(=O)[C@H](C(C)C)NC(=O)[C@H](C)NC1=O)C(=O)N[C@@H](Cc1ccc(O)cc1)C(=O)N[C@@H](CCCCN)C(=O)N[C@@H](CO)C(=O)N[C@@H]([C@@H](C)CC)C(=O)N1CCC[C@H]1C(=O)N1CCC[C@H]1C(=O)N[C@@H]([C@@H](C)CC)C(=O)N2`: in series [1], the inhibition entry was “Active”.
